ChEMBL document CHEMBL5550160, “Leveraging a rationally designed veliparib-based anilide eliciting anti-leukemic effects for the design of pH-responsive polymer nanoformulation” (Eur J Med Chem, 2024)
Calls of active or inactive are those of the source. The calls are words filed in the database; no cut-off is given here.

Key:
[1] = molecular target: T1, Histone deacetylase 1 (Homo sapiens, UniProt Q13547); experiment: Inhibition of HDAC1 (unknown origin) using p53 residues 379 to 382 [RHKK(Ac)] as fluorogenic substrate assessed as residual activity at 1.23 x 10^-7M (reference value: 98.06%); details: dose 1.23 10^-7M
T1 sequence (Q13547 whole entry, the tested form may be a part): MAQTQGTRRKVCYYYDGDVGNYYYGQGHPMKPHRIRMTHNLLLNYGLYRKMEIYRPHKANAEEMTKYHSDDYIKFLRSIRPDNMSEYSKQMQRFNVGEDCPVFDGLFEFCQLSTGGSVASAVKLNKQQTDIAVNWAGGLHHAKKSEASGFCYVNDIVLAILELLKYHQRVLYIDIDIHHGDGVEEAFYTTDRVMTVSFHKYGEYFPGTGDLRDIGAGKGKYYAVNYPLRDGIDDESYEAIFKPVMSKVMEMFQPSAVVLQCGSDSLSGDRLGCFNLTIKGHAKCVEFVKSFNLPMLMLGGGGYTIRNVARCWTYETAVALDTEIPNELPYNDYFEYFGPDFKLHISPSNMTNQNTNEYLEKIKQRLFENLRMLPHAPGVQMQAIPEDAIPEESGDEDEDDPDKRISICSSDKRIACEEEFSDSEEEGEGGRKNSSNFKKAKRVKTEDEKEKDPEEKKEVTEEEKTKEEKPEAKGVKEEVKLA

[2] = system: HL-60; experiment: Induction of apoptosis in human HL-60 cells assessed as nuclear fragmentation at 0.5 to 1 times IC50 by DAPI staining based microscopic analysis; assay type: functional, cell-based
[3] = molecular target: T1, Histone deacetylase 1; experiment: Inhibition of HDAC1 (unknown origin) using p53 residues 379 to 382 [RHKK(Ac)] as fluorogenic substrate assessed as residual activity at 1.52 x 10^-9M (reference value: 98.06%); details: dose 1.52 10^-9M
[4] = molecular target: Histone deacetylase 3 (Homo sapiens, UniProt O15379); experiment: Inhibition of HDAC3 (unknown origin) using p53 residues 379 to 382 [RHKK(Ac)] as fluorogenic substrate assessed as residual activity at 1 x 10^-5M (reference value: 103.08%); details: dose 1.0 10^-5M
Chain of Histone deacetylase 3 (O15379 whole entry, the tested form may be a part): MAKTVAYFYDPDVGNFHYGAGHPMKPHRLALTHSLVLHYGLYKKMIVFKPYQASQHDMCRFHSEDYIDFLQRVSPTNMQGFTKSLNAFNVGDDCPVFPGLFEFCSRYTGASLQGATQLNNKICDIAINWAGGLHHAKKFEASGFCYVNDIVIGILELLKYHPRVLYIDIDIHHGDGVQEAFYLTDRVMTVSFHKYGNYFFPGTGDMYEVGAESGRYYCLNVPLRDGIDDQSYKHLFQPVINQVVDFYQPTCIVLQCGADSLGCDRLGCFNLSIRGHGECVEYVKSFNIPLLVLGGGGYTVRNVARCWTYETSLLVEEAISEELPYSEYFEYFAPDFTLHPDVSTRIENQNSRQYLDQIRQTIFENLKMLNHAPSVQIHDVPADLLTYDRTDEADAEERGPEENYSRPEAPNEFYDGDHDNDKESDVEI

[5] = molecular target: T2, Histone deacetylase 7 (Homo sapiens) (UniProt Q8WUI4); experiment: Inhibition of HDAC7 (unknown origin) assessed as residual activity at 3.70 x 10^-7M (reference value: 102.66%); details: dose 3.7 10^-7M
T2 sequence (whole entry): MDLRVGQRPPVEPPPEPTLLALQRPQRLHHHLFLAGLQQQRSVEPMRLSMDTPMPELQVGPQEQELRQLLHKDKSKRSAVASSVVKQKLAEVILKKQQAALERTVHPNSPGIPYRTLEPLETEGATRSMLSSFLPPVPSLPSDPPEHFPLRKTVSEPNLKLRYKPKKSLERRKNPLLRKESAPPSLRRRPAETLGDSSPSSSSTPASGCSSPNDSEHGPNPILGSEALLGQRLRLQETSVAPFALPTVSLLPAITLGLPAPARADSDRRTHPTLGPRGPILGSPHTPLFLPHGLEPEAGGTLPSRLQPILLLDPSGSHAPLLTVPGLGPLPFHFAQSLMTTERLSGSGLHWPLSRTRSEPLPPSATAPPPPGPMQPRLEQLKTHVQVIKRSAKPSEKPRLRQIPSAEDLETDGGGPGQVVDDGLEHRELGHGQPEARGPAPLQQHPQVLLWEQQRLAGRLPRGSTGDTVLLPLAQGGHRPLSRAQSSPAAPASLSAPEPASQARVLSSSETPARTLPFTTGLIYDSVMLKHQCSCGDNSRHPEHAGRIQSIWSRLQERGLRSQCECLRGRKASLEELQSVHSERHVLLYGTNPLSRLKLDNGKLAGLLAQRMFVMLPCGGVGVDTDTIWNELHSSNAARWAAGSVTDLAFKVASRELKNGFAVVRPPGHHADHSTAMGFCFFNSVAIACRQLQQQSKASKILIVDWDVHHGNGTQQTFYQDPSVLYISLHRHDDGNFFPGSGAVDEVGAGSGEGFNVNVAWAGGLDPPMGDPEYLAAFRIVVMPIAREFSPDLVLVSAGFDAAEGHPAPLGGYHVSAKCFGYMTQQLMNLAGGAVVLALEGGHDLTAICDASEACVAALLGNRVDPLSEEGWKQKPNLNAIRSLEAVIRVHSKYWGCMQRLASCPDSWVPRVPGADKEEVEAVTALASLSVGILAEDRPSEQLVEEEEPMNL

[6] = molecular target: Class 1 histone deacetylase (Homo sapiens) (UniProt Q13547+O15379+Q92769+Q9BY41); experiment: Inhibition of class 1 HDAC in human HL-60 cells assessed as upregulation of acetyl histone H3 protein expression 0.5 to 1 times IC50 by Western blot analysis; assay type: cell-based
[7] = system: HL-60; experiment: Induction of autophagy in human HL-60 cells assessed as increase in autophagic flux by measuring increase in red-stained cells at 0.5 to 1 times IC50 by acridine orange staining based microscopic analysis; assay type: functional, cell-based
[8] = molecular target: T2, Histone deacetylase 7 (Homo sapiens); experiment: Inhibition of HDAC7 (unknown origin) assessed as residual activity at 5.08 x 10^-10M (reference value: 102.66%); details: dose 5.08 10^-10M
[9] = molecular target: T3, Protein deacetylase HDAC6 (Homo sapiens) (UniProt Q9UBN7); experiment: Inhibition of HDAC6 (unknown origin) using p53 residues 379 to 382 [RHKK(Ac)] as fluorogenic substrate assessed as residual activity at 5.08 x 10^-10M (reference value: 101.06%); details: dose 5.08 10^-10M
T3 sequence (whole entry): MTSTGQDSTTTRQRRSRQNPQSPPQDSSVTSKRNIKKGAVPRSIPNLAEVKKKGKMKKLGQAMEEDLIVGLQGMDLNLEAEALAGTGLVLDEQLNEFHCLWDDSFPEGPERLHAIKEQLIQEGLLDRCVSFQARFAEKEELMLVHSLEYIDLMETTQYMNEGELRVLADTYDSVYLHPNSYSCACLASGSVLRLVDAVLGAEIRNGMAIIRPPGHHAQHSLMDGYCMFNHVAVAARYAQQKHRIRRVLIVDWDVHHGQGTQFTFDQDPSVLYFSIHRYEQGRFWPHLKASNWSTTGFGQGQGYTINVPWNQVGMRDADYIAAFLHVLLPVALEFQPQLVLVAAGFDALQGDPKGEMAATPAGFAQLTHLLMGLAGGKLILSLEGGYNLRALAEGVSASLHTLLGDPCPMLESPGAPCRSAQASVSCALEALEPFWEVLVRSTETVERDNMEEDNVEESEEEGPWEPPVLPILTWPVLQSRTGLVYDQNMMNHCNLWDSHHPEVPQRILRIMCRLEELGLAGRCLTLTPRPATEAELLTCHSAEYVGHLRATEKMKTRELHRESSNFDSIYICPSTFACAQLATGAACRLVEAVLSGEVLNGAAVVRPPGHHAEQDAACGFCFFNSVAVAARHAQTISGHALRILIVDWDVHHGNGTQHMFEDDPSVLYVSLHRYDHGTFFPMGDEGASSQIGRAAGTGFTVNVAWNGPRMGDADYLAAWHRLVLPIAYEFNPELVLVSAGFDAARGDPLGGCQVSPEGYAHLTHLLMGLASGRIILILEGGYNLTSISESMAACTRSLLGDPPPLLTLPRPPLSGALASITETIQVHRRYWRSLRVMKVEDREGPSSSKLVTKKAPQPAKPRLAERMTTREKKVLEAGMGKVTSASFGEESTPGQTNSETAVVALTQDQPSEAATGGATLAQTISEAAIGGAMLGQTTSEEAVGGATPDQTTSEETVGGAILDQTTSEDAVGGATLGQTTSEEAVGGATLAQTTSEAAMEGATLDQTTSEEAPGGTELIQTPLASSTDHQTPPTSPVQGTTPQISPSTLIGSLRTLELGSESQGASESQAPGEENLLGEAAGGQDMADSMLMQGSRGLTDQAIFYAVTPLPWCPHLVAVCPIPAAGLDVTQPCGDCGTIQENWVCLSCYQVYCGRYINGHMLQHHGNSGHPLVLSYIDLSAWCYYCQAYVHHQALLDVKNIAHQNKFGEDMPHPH

Activity [1]: 31.3%
Activity [3]: 95.5%
Activity [4]: 20.7%
Activity [5]: 91.9%
inhibition [6]: Active
Activity [8]: 93.4%
Activity [9]: 101%
Structure (SMILES): NC(=O)c1cccc2[nH]c(-c3ccc(NCc4ccc(C(=O)Nc5ccccc5N)cc4)cc3)nc12
Activity [2]: inactive
Activity [7]: Active
